# Key:
# [1] = Intravenous pharmacokinetic study in rats; settings: rat, 0.20 mg/kg
# [2] = Oral pharmacokinetic study in rats (released hydromorphone in plasma); settings: rat; for AUC of hydromorphone released from the conjugate / Cmax of hydromorphone released from the conjugate / Tmax of hydromorphone released from the conjugate: oral solution, dose equimolar to 2.0 mg/kg hydromorphone, plasma
# GI transit = test: Validated rat gastrointestinal (GI) motility study; settings: oral, equimolar dose, result in words
# [3] = Tamper resistance study: extraction methods, hydromorphone release by HPLC; settings: for amount of hydromorphone released from 3,6-di-aspirin-HM: %-AUC by HPLC
# Source text: Certain prodrug conjugates of the present technology were exposed to various commonly applied “extraction methods” to test for hydrolysis and/or decomposition of the prodrug.
# [4] = Intranasal pharmacokinetic study in rats; settings: rat, equimolar to 2.0 mg/kg hydromorphone
# Procedure: The intranasal studies were performed at doses equimolar to 2.0 mg/kg of hydromorphone.
# [5] = oral, equimolar to 2.0 mg/kg hydromorphone, result in words
structure (smiles),measurement,setting,value
"CC(=O)Oc1ccccc1C(=O)OC1=CC[C@H]2[C@H]3Cc4ccc(OC(=O)c5ccccc5OC(C)=O)c5c4[C@@]2(CCN3C)[C@H]1O5 [3,6-di-Aspirin-HM, 3,6-di-aspirin-hydromorphone]",AUC as % of unconjugated hydromorphone,[1],6%
same,Cmax as % of unconjugated hydromorphone,[1],3%
same,plasma concentrations of hydromorphone after intravenous administration compared to unconjugated hydromorphone,[1]; result in words,significantly lower
same,AUC of hydromorphone released from the conjugate,[2],82.4 ng·h/mL
same,Cmax of hydromorphone released from the conjugate,[2],36.5 ng/mL
same,Tmax of hydromorphone released from the conjugate,[2],15 min
same,hydromorphone plasma concentrations compared to unconjugated hydromorphone,[2]; [5],comparable
same,reduction of GI transit compared to hydromorphone hydrochloride,GI transit,reduces GI transit to a lesser extent than hydromorphone hydrochloride
same,"amount of hydromorphone released from 3,6-di-aspirin-HM","[3]; 1N HCl, ambient temperature, 30 min.",0%
same,"amount of hydromorphone released from 3,6-di-aspirin-HM","[3]; 1N HCl, ambient temperature, 60 min.",0%
same,"amount of hydromorphone released from 3,6-di-aspirin-HM","[3]; 1N NaOH, ambient temperature, 30 min.",1%
same,"amount of hydromorphone released from 3,6-di-aspirin-HM","[3]; 1N NaOH, ambient temperature, 60 min.",1%
same,"amount of hydromorphone released from 3,6-di-aspirin-HM","[3]; 4N NaOH, ambient temperature, 30 min.",1%
same,"amount of hydromorphone released from 3,6-di-aspirin-HM","[3]; 4N NaOH, ambient temperature, 60 min.",6%
same,"amount of hydromorphone released from 3,6-di-aspirin-HM","[3]; 5% Acetic acid, ambient temperature, 30 min.",0%
same,"amount of hydromorphone released from 3,6-di-aspirin-HM","[3]; 5% Acetic acid, ambient temperature, 60 min.",0%
same,"amount of hydromorphone released from 3,6-di-aspirin-HM","[3]; Glacial acetic acid, ambient temperature, 30 min.",0%
same,"amount of hydromorphone released from 3,6-di-aspirin-HM","[3]; Glacial acetic acid, ambient temperature, 60 min.",0%
same,"amount of hydromorphone released from 3,6-di-aspirin-HM","[3]; Sat. NaHCO3, ambient temperature, 30 min.",0%
same,"amount of hydromorphone released from 3,6-di-aspirin-HM","[3]; Sat. NaHCO3, ambient temperature, 60 min.",0%
same,"amount of hydromorphone released from 3,6-di-aspirin-HM","[3]; Water, ambient temperature, 30 min.",0%
same,"amount of hydromorphone released from 3,6-di-aspirin-HM","[3]; Water, ambient temperature, 60 min.",0%
same,"chemical stability under commonly applied ""extraction methods""",[3]; result in words,chemically stable
same,outcome of solvent extraction from formulation,[3]; result in words,only yielded inactive prodrug
same,AUC as % of unconjugated hydromorphone,[4],17%
same,Cmax as % of unconjugated hydromorphone,[4],20%
same,plasma concentrations of hydromorphone after intranasal administration compared to the parent drug,[4]; result in words,significantly reduced
"CN1CCC23c4c5ccc(OC(=O)c6ccccc6)c4OC2C(OC(=O)c2ccccc2)=CCC3C1C5 (stereo not drawn) [3,6-di-Benzoate-HM, 3,6-di-benzoate-hydromorphone]",AUC of hydromorphone released from the conjugate,[2],30.1 ng·h/mL
same,Cmax of hydromorphone released from the conjugate,[2],11.3 ng/mL
same,Tmax of hydromorphone released from the conjugate,[2],15 min
same,hydromorphone plasma concentrations compared to unconjugated hydromorphone,[2]; [5],lower at all time points
"CN1CCC23c4c5ccc(OC(=O)c6ccccc6)c4OC2C(=O)CCC3C1C5 (stereo not drawn) [3-Benzoate-HM, 3-benzoate-hydromorphone]",AUC of hydromorphone released from the conjugate,[2],41.2 ng·h/mL
same,Cmax of hydromorphone released from the conjugate,[2],19.8 ng/mL
same,Tmax of hydromorphone released from the conjugate,[2],30 min
same,hydromorphone plasma concentrations compared to unconjugated hydromorphone,[2]; [5],lower at all time points
"CN1CCC23c4c5ccc(OC(=O)C=Cc6ccccc6)c4OC2C(=O)CCC3C1C5 (stereo not drawn) [3-Cinnamate-HM, 3-cinnamate-hydromorphone]",AUC of hydromorphone released from the conjugate,[2],25.3 ng·h/mL
same,Cmax of hydromorphone released from the conjugate,[2],28.3 ng/mL
same,Tmax of hydromorphone released from the conjugate,[2],15 min
same,hydromorphone plasma concentrations compared to unconjugated hydromorphone,[2]; [5],lower at all time points
"CN1CC[C@]23c4c5ccc(OC(=O)c6ccccc6Nc6ccccc6)c4OC2C(=O)CC[C@H]3[C@H]1C5 (stereo partly drawn) [3-Fenamate-HM, 3-fenamate-hydromorphone]",AUC of hydromorphone released from the conjugate,[2],44.6 ng·h/mL
same,Cmax of hydromorphone released from the conjugate,[2],30.6 ng/mL
same,Tmax of hydromorphone released from the conjugate,[2],15 min
same,hydromorphone plasma concentrations compared to unconjugated hydromorphone,[2]; [5],elevated for the first hour after oral administration and then decreased quickly
"CN1CCC23c4c5ccc(OC(=O)c6ccncc6)c4OC2C(=O)CCC3C1C5 (stereo not drawn) [3-Isoniacin-HM, 3-isoniacin-hydromorphone]",AUC of hydromorphone released from the conjugate,[2],25.1 ng·h/mL
same,Cmax of hydromorphone released from the conjugate,[2],18.5 ng/mL
same,Tmax of hydromorphone released from the conjugate,[2],15 min
same,Cmax value of released hydromorphone compared to unconjugated hydromorphone,[2]; [5],lower
"CN1CCC23c4c5ccc(OC(=O)c6ccc(O)cc6)c4OC2C(=O)CCC3C1C5 (stereo not drawn) [3-p-Salicylic-HM, 3-p-salicylic-hydromorphone]",AUC of hydromorphone released from the conjugate,[2],31.4 ng·h/mL
same,Cmax of hydromorphone released from the conjugate,[2],17.2 ng/mL
same,Tmax of hydromorphone released from the conjugate,[2],15 min
same,hydromorphone plasma concentrations compared to unconjugated hydromorphone,[2]; [5],lower at all time points
"COc1ccc2cc(C(C)C(=O)OC3=CCC4C5Cc6ccc(O)c7c6C4(CCN5C)C3O7)ccc2c1 (stereo not drawn) [6-Naproxen-HM, 6-naproxen-hydromorphone]",AUC of hydromorphone released from the conjugate,[2],31.6 ng·h/mL
same,Cmax of hydromorphone released from the conjugate,[2],19.1 ng/mL
same,Tmax of hydromorphone released from the conjugate,[2],15 min
same,overall exposure after oral administration compared to the parent drug,[2]; [5],reduced significantly
"CN1CCC23c4c5ccc(O)c4OC2C(OC(=O)c2ccccc2O)=CCC3C1C5 (stereo not drawn) [6-o-Salicylate-HM, 6-o-salicylate-hydromorphone]",AUC of hydromorphone released from the conjugate,[2],33.3 ng·h/mL
same,Cmax of hydromorphone released from the conjugate,[2],14.1 ng/mL
same,Tmax of hydromorphone released from the conjugate,[2],15 min
same,Cmax value of released hydromorphone compared to unconjugated hydromorphone,[2]; [5],lower
"CC(=O)Oc1ccccc1C(=O)Oc1ccc2c3c1OC1C(=O)CCC4C(C2)N(C)CCC314 (stereo not drawn) [Conjugate 3-Aspirin-HM, 3-aspirin-hydromorphone]",AUC of hydromorphone released from the conjugate,[2],55.9 ng·h/mL
same,Cmax of hydromorphone released from the conjugate,[2],44.3 ng/mL
same,Tmax of hydromorphone released from the conjugate,[2],15 min
same,hydromorphone plasma concentrations compared to unconjugated hydromorphone,[2]; [5],comparable

# From patent US9849185B2, “Benzoic acid, benzoic acid derivatives and heteroaryl carboxylic acid conjugates of hydromorphone, prodrugs, methods of making and use thereof” (priority 2011, dated 2017)
